Reference: ChEMBL document CHEMBL5226353, “Cytotoxic Activities of 9,10-seco-Cycloartane-Type Triterpenoids from the Chinese Liverwort Lepidozia reptans” (J Nat Prod, 2021)
Counter-ions that a name gives are not always drawn.

Tests used:
[1] = system: NCI-H446; assay: Cytotoxicity against human NCI-H446 cells assessed as inhibition of cell growth incubated for 48 hrs by MTT assay; format: functional, cell-based; conditions: NCI-H446, 48 h
[2] = system: PC-3; assay: Induction of apoptosis in human PC-3 cells assessed as early apoptotic cells up to 10 uM measured at 12 hrs by annexinV-FITC staining based flow cytometric analysis (reference value: 0.55 %); format: functional
[3] = system: PC-3; assay: Induction of apoptosis in human PC-3 cells assessed as viable cells at 2.5 uM measured after 24 hrs by annexinV-FITC staining based flow cytometric analysis (reference value: 92.9 %); format: functional; conditions: read-out: Activity
[4] = system: PC-3; assay: Induction of apoptosis in human PC-3 cells assessed as late apoptotic cells at 5 uM measured after 24 hrs by annexinV-FITC staining based flow cytometric analysis (reference value: 1.87 %); format: functional
[5] = system: PC-3; assay: Induction of apoptosis in human PC-3 cells assessed as viable cells up to 10 uM measured att 24 hrs by annexinV-FITC staining based flow cytometric analysis (reference value: 91.1 %); format: functional
[6] = system: PC-3; assay: Cytotoxicity against human PC-3 cells assessed as inhibition of cell growth incubated for 48 hrs by MTT assay; format: functional, cell-based; conditions: PC-3, 48 h
[7] = system: PC-3; assay: Induction of apoptosis in human PC-3 cells assessed as necrotic cells up to 10 uM measured at 8 hrs by annexinV-FITC staining based flow cytometric analysis (reference value: 3.69 %); format: functional
[8] = system: PC-3; assay: Induction of apoptosis in human PC-3 cells assessed as increase in ROS levels at measured after 24 hrs by DCFH-DA staining based flow cytometry assay; format: functional, cell-based; conditions: dose <= 10.0 µM
[9] = system: PC-3; assay: Induction of apoptosis in human PC-3 cells assessed as late apoptotic cells up to 10 uM measured at 24 hrs by annexinV-FITC staining based flow cytometric analysis (reference value: 4.64 %); format: functional
[10] = system: PC-3; assay: Induction of apoptosis in human PC-3 cells assessed as viable cells up to 10 uM measured at 2 hrs by annexinV-FITC staining based flow cytometric analysis (reference value: 91.1 %); format: functional
[11] = system: PC-3; assay: Induction of apoptosis in human PC-3 cells assessed as necrotic cells at 5 uM measured after 24 hrs by annexinV-FITC staining based flow cytometric analysis (reference value: 5.09 %); format: functional
[12] = system: PC-3; assay: Induction of apoptosis in human PC-3 cells assessed as necrotic cells up to 10 uM measured at 4 hrs by annexinV-FITC staining based flow cytometric analysis (reference value: 3.69 %); format: functional
[13] = system: PC-3; assay: Induction of apoptosis in human PC-3 cells assessed as viable cells up to 10 uM measured att 12 hrs by annexinV-FITC staining based flow cytometric analysis (reference value: 91.1 %); format: functional
[14] = system: PC-3; assay: Induction of apoptosis in human PC-3 cells assessed as late apoptotic cells up to 10 uM measured at 2 hrs by annexinV-FITC staining based flow cytometric analysis (reference value: 4.64 %); format: functional
[15] = system: PC-3; assay: Induction of apoptosis in human PC-3 cells assessed as early apoptotic cells up to 10 uM measured at 4 hrs by annexinV-FITC staining based flow cytometric analysis (reference value: 0.55 %); format: functional
[16] = system: PC-3; assay: Induction of apoptosis in human PC-3 cells assessed as necrotic cells up to 10 uM measured at 12 hrs by annexinV-FITC staining based flow cytometric analysis (reference value: 3.69 %); format: functional
[17] = system: PC-3; assay: Induction of apoptosis in human PC-3 cells assessed as late apoptotic cells at 10 uM measured after 24 hrs by annexinV-FITC staining based flow cytometric analysis (reference value: 1.87 %); format: functional
[18] = system: PC-3; assay: Induction of apoptosis in human PC-3 cells assessed as necrotic cells up to 10 uM measured at 2 hrs by annexinV-FITC staining based flow cytometric analysis (reference value: 3.69 %); format: functional
[19] = system: PC-3; assay: Induction of apoptosis in human PC-3 cells assessed as early apoptotic cells at 5 uM measured after 24 hrs by annexinV-FITC staining based flow cytometric analysis (reference value: 0.12 %); format: functional
[20] = system: PC-3; assay: Induction of apoptosis in human PC-3 cells assessed as late apoptotic cells up to 10 uM measured at 4 hrs by annexinV-FITC staining based flow cytometric analysis (reference value: 4.64 %); format: functional
[21] = system: A549; assay: Cytotoxicity against human A549 cells assessed as inhibition of cell growth incubated for 48 hrs by MTT assay; format: functional, cell-based; conditions: A549, 48 h
[22] = system: PC-3; assay: Induction of mitochondrial membrane potential loss in human PC-3 cells at 6 uM measured after 24 hrs by JC-1 dye-based flow cytometric analysis (reference value: 100 %); format: functional
[23] = system: PC-3; assay: Induction of apoptosis in human PC-3 cells assessed as necrotic cells at 2.5 uM measured after 24 hrs by annexinV-FITC staining based flow cytometric analysis (reference value: 5.09 %); format: functional
[24] = system: PC-3; assay: Induction of apoptosis in human PC-3 cells assessed as viable cells at 10 uM measured after 24 hrs by annexinV-FITC staining based flow cytometric analysis (reference value: 92.9 %); format: functional; conditions: read-out: Activity
[25] = system: PC-3; assay: Induction of apoptosis in human PC-3 cells assessed as early apoptotic cells at 2.5 uM measured after 24 hrs by annexinV-FITC staining based flow cytometric analysis (reference value: 0.12 %); format: functional
[26] = system: PC-3; assay: Induction of apoptosis in human PC-3 cells assessed as late apoptotic cells up to 10 uM measured at 12 hrs by annexinV-FITC staining based flow cytometric analysis (reference value: 4.64 %); format: functional
[27] = system: PC-3; assay: Induction of apoptosis in human PC-3 cells assessed as late apoptotic cells at 2.5 uM measured after 24 hrs by annexinV-FITC staining based flow cytometric analysis (reference value: 1.87 %); format: functional
[28] = system: PC-3; assay: Induction of apoptosis in human PC-3 cells assessed as late apoptotic cells up to 10 uM measured at 8 hrs by annexinV-FITC staining based flow cytometric analysis (reference value: 4.64 %); format: functional
[29] = system: PC-3; assay: Induction of apoptosis in human PC-3 cells assessed as viable cells at 5 uM measured after 24 hrs by annexinV-FITC staining based flow cytometric analysis (reference value: 92.9 %); format: functional; conditions: read-out: Activity
[30] = system: PC-3; assay: Induction of apoptosis in human PC-3 cells assessed as early apoptotic cells at 10 uM measured after 24 hrs by annexinV-FITC staining based flow cytometric analysis (reference value: 0.12 %); format: functional
[31] = system: PC-3; assay: Induction of mitochondrial membrane potential loss in human PC-3 cells at 4 uM measured after 24 hrs by JC-1 dye-based flow cytometric analysis (reference value: 100 %); format: functional
[32] = system: PC-3; assay: Induction of apoptosis in human PC-3 cells assessed as early apoptotic cells up to 10 uM measured at 8 hrs by annexinV-FITC staining based flow cytometric analysis (reference value: 0.55 %); format: functional
[33] = system: PC-3; assay: Induction of apoptosis in human PC-3 cells assessed as necrotic cells up to 10 uM measured at 24 hrs by annexinV-FITC staining based flow cytometric analysis (reference value: 3.69 %); format: functional
[34] = system: PC-3; assay: Induction of apoptosis in human PC-3 cells assessed as early apoptotic cells up to 10 uM measured at 24 hrs by annexinV-FITC staining based flow cytometric analysis (reference value: 0.55 %); format: functional
[35] = system: NCI-H3255; assay: Cytotoxicity against human NCI-H3255 cells assessed as inhibition of cell growth incubated for 48 hrs by MTT assay; format: functional, cell-based; conditions: NCI-H3255, 48 h
[36] = system: PC-3; assay: Induction of apoptosis in human PC-3 cells assessed as early apoptotic cells up to 10 uM measured at 2 hrs by annexinV-FITC staining based flow cytometric analysis (reference value: 0.55 %); format: functional
[37] = system: PC-3; assay: Induction of apoptosis in human PC-3 cells assessed as viable cells up to 10 uM measured at 8 hrs by annexinV-FITC staining based flow cytometric analysis (reference value: 91.1 %); format: functional
[38] = system: PC-3; assay: Induction of mitochondrial membrane potential loss in human PC-3 cells at 2 uM measured after 24 hrs by JC-1 dye-based flow cytometric analysis (reference value: 100 %); format: functional
[39] = system: PC-3; assay: Induction of apoptosis in human PC-3 cells assessed as necrotic cells at 10 uM measured after 24 hrs by annexinV-FITC staining based flow cytometric analysis (reference value: 5.09 %); format: functional
[40] = system: PC-3; assay: Induction of apoptosis in human PC-3 cells assessed as viable cells up to 10 uM measured at 4 hrs by annexinV-FITC staining based flow cytometric analysis (reference value: 91.1 %); format: functional

Structure (SMILES): C=C(C)C(=O)CC[C@@H](C)[C@H]1[C@H](O)C[C@@]2(C)[C@@H]3CC[C@H]4C(C)(C)[C@@H](O)CC[C@]4(O)CC3=CC[C@]12C
- IC50 [1]: 5 µM
- Activity [2]: 2.63%
- viability at 2.5 µM [3]: 93.2%
- Activity [4]: 3.81%
- Activity [5]: 83%
- IC50 [6]: 4.2 µM
- Activity [7]: 4.5%
- Activity [8]: Dose-Dependent Effect
- Activity [9]: 9.45%
- Activity [10]: 88.4%
- Activity [11]: 2.68%
- Activity [12]: 6.67%
- Activity [13]: 86.5%
- Activity [14]: 4.82%
- Activity [15]: 0.39%
- Activity [16]: 3.48%
- Activity [17]: 40.3%
- Activity [18]: 6.41%
- Activity [19]: 1.64%
- Activity [20]: 5.8%
- IC50 [21]: 4.4 µM
- Activity [22]: 16.8%
- Activity [23]: 4.44%
- viability at 10 µM [24]: 45%
- Activity [25]: 0.29%
- Activity [26]: 7.37%
- Activity [27]: 2.06%
- Activity [28]: 5.96%
- viability at 5 µM [29]: 91.9%
- Activity [30]: 0.78%
- Activity [31]: 71.5%
- Activity [32]: 0.76%
- Activity [33]: 4.25%
- Activity [34]: 3.3%
- IC50 [35]: 5.7 µM
- Activity [36]: 0.33%
- Activity [37]: 88.8%
- Activity [38]: 85.2%
- Activity [39]: 12.9%
- Activity [40]: 87.1%

Structure (SMILES): COc1cccc2c1C(=O)c1c(O)c3c(c(O)c1C2=O)C[C@@](O)(C(=O)CO)C[C@@H]3O[C@H]1C[C@H](N)[C@H](O)[C@H](C)O1 [DOXORUBICIN HYDROCHLORIDE]
- IC50 [1]: 1.7 µM
- IC50 [6]: 0.4 µM
- IC50 [21]: 1.2 µM
- IC50 [35]: 1.5 µM

Structure (SMILES): CC(C)=CCC[C@@H](C)[C@H]1[C@H](O)C[C@@]2(C)[C@@H]3CC[C@H]4C(C)(C)[C@@H](O)CC[C@]4(O)CC3=CC[C@]12C
- IC50 [1]: 7.5 µM
- IC50 [6]: 6.5 µM
- IC50 [21]: 7 µM
- IC50 [35]: 9.4 µM

Structure (SMILES): C=C(C[C@@H](C)[C@H]1[C@H](O)C[C@@]2(C)[C@@H]3CC[C@H]4C(C)(C)[C@@H](O)CC[C@]4(O)CC3=CC[C@]12C)C(C)C
- IC50 [1]: 9.6 µM
- IC50 [6]: 8.6 µM
- IC50 [21]: 8.8 µM
- IC50 [35]: > 10 µM
